{"source": "patent US10725049B2", "about": "“Methods of detecting and measuring glutamine and analogues thereof, and methods related thereto” (Victoria Link Limited, priority 2013, dated 2020)", "key": {"BpsA [1]": {"molecular_target": "T1, BpsA (Streptomyces lavendulae, UniProt Q1MWN4)", "T1 sequence (Q1MWN4 whole entry)": "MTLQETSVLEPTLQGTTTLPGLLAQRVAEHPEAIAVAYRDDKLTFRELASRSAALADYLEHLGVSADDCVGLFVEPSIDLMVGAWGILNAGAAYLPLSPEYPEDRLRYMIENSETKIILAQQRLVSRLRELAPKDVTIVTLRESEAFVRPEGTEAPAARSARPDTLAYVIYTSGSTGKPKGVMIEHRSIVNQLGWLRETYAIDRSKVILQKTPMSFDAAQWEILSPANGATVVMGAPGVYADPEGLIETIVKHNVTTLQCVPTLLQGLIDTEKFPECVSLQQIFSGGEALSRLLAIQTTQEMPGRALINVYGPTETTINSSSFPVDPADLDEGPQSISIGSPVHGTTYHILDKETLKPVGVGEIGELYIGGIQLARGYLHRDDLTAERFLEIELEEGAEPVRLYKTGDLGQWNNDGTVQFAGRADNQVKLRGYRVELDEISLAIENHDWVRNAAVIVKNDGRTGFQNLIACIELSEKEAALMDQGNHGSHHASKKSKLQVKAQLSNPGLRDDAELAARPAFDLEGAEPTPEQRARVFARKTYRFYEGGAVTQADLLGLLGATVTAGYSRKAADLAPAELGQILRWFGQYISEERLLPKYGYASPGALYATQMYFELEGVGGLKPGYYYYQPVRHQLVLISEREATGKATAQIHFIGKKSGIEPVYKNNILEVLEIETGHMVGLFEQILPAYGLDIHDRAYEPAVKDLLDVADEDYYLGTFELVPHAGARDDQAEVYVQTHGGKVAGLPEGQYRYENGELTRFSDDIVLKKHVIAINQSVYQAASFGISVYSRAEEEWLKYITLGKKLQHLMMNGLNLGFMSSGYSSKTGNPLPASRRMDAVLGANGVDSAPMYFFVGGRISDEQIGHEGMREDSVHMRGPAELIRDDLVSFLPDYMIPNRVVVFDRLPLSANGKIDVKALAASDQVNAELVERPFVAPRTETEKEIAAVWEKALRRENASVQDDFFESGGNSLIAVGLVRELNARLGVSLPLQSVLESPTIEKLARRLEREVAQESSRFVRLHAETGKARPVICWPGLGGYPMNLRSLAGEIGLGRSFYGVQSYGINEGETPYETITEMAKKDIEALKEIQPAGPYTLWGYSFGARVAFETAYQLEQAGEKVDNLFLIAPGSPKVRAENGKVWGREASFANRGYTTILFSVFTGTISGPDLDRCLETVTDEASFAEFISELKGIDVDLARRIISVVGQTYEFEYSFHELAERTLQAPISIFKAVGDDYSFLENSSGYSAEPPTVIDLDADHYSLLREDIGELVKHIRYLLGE", "experiment": "BpsA end-point assay measuring L-glutamine in complex biological media (indigoidine re-solubilised in DMSO, A590)", "details": "for Spiked − unspiked (μM L-glutamine +/− 1 std dev): 300 μM spike", "method": "For improved accuracy, reproducibility, and robustness, it is generally preferable to use an end-point assay over a kinetic assay. An end-point assay for BpsA was designed and carried out as follows. In these experiments, 40 μL indigoidine-producing reactions were run until all glutamine present was consumed, and then all the indigoidine was solubilised by adding 190 μL of the organosulfur solvent dimethyl sulfoxide (DMSO).\nIndigoidine synthesis reactions were initiated by addition of 10 μL of each L-glutamine concentration standard in triplicate. […] The 96 plate was then mixed at 1000 rpm for 10 seconds and incubated at room temperature for 45 minutes to enable complete reaction of all L-glutamine present in each well. After this, 190 μL of DMSO heated to 50° C. was added to each well to solubilise the indigoidine. The 96 well plate was then incubated at room temperature with shaking at 2500 rpm for 10 minutes. […] This yielded a standard curve with an excellent straight line fit (FIG. 4).\nFor these experiments, standard samples (10 μL per well) were prepared in triplicate in ddH2O as per Example 4 at the following concentrations: 1000 μM, 800 μM, 600 μM, 400 μM, 200 μM, and 0 μM. Alongside these were aliquoted paired triplicate samples (10 μL per well) of the following media: adult bovine serum (purchased from Sigma-Aldrich), human urine, LB, DMEM, and ddH2O. For each medium, one of the two paired triplicate sets was spiked (amended) with 300 μM L-glutamine, while the other was left unspiked. Indigoidine synthesis was initiated by addition of 30 μL reaction mix (as described in Table 4) to each sample-containing well. The 96 well plate was then mixed at 1000 rpm for 10 seconds and incubated at room temperature for one hour, after which 180 μL of DMSO heated to 50° C. was added to each well. The plate was then shaken at 2500 rpm for 10 minutes to fully solubilise the indigoidine.\nIt was observed that the serum containing wells went immediately cloudy upon addition of DMSO, preventing meaningful A590 readings from being obtained for those samples. In all other cases, a single A590 reading for each well was recorded. For each sample, triplicate A590 values were averaged and this value was used to quantify glutamine levels based on the standard curve generated from the standard samples. With the exception of the ddH2O, it was unknown what the starting concentration of L-glutamine was in each medium being tested. However, the comparison of measured L-glutamine levels in spiked versus unspiked samples for each medium enabled assessment of the accuracy of the BpsA end-point assay in measuring L-glutamine concentrations in that medium."}, "BpsA [2]": {"molecular_target": "T1, BpsA", "experiment": "Relative reaction rate of L-glutamine versus analogue with BpsA", "assay_type": "biochemical", "details": "L-glutamine faster than an analogue (e.g. L-glycyl glutamine)", "method": "Without wishing to be bound by theory, it is believed that BpsA or a related enzyme can be used to measure both L-glutamine and a glutamine analogue (e.g., L-glycyl glutamine) in the same sample. Experiments have shown that L-glutamine reacts much faster with BpsA (˜100-1000 fold) than an analogue. Thus, it would be possible to incubate the sample for a short period (e.g., 2 minutes), remove the blue pigment, and measure the pigment levels to calculate L-glutamine levels. It would then be possible to wait for a further longer period (e.g., 8 hours), and measure the remaining blue pigment to calculate analogue levels (e.g., L-glycyl glutamine). It is expected that there would be little contamination of the glutamine-based product by the analogue-based product based on the enzymatic profile for BpsA."}}}
{"smiles": "NC(=O)CC[C@H](N)C(=O)O", "note": "[L-glutamine]", "values": [{"measurement": "Spiked sample measurement (μM L-glutamine +/− 1 std dev)", "setting": "BpsA [1]; DMEM spiked with 300 μM L-glutamine, standard curve in ddH2O", "result": "427.4 ± 4.6", "unit": "µM"}, {"measurement": "Unspiked sample measurement (μM L-glutamine +/− 1 std dev)", "setting": "BpsA [1]; DMEM", "result": "20.3 ± 2.7", "unit": "µM"}, {"measurement": "Spiked − unspiked (μM L-glutamine +/− 1 std dev)", "setting": "BpsA [1]; DMEM", "result": "407.0 ± 5.4", "unit": "µM"}, {"measurement": "Spiked sample measurement (μM L-glutamine +/− 1 std dev)", "setting": "BpsA [1]; LB spiked with 300 μM L-glutamine, standard curve in ddH2O", "result": "377.9 ± 14.1", "unit": "µM"}, {"measurement": "Unspiked sample measurement (μM L-glutamine +/− 1 std dev)", "setting": "BpsA [1]; LB", "result": "49.6 ± 5.3", "unit": "µM"}, {"measurement": "Spiked − unspiked (μM L-glutamine +/− 1 std dev)", "setting": "BpsA [1]; LB", "result": "328.1 ± 15.2", "unit": "µM"}, {"measurement": "Spiked sample measurement (μM L-glutamine +/− 1 std dev)", "setting": "BpsA [1]; ddH2O spiked with 300 μM L-glutamine", "result": "319.0 ± 5.4", "unit": "µM"}, {"measurement": "Spiked − unspiked (μM L-glutamine +/− 1 std dev)", "setting": "BpsA [1]; ddH2O", "result": "319.0 ± 5.4", "unit": "µM"}, {"measurement": "Spiked sample measurement (μM L-glutamine +/− 1 std dev)", "setting": "BpsA [1]; human urine spiked with 300 μM L-glutamine, standard curve in ddH2O", "result": "295.8 ± 7.1", "unit": "µM"}, {"measurement": "Unspiked sample measurement (μM L-glutamine +/− 1 std dev)", "setting": "BpsA [1]; human urine", "result": "71.4 ± 23.6", "unit": "µM"}, {"measurement": "Spiked − unspiked (μM L-glutamine +/− 1 std dev)", "setting": "BpsA [1]; human urine", "result": "224.4 ± 24.9", "unit": "µM"}, {"measurement": "Reaction rate with BpsA relative to an analogue", "setting": "BpsA [2]", "result": "100-1000 fold"}]}
